Values quoted from earlier work in patent US12691140B2, “Therapeutic carbon monoxide formulations” (THE BRIGHAM AND WOMEN'S HOSPITAL, INC., priority 2020, dated 2026).

Details: dogs, abdominal insufflation to COHb levels comparable to inhalation

For `[C-]#[O+]` [CO, Carbon monoxide], the toxicity is given as “no toxicity”.
